The values below are quoted from earlier work in PMC10526633 (Structure (London, England : 1993), 2023).

One data set deals with SKBr3 cells. The note with it: highest tested concentration of 20 μM.
Another data set concerns HER2 signaling. The settings on record: highest tested concentration of 20 μM.
In the next data set the test system is N62Q mutant cells. The note with it: N62Q GRP94 mutant cells.

In the case of `COC(=O)c1c(O)cc(O)c(Cl)c1CCc1nccn1Cc1ccccc1` [BnIm, methyl 2-(2-(1-benzyl-1H-imidazol-2-yl)ethyl)-3-chloro-4,6-dihydroxybenzoate], the “Cytotoxicity in SKBr3 cells” value in the data set on SKBr3 cells is recorded as “no cytotoxicity”. Moreover, in the data set on HER2 signaling, the “Effect on HER2 signaling in SKBr3 cells” value is reported as “no effect”.

For the compound `CC(C)NCCCn1c(Sc2cc(Cl)cc(Cl)c2)nc2c(N)ncnc21` [PU-WS13], the “Sensitivity of N62Q mutant cells to ligand” value in the data set with N62Q mutant cells is “insensitivity”. In the data set on GRP94 (EndoH, retains N-acetylglucosamine attached to Asn, ref Yan et al. cell Reports 2020), the “Effect of limited sugar removal on ligand binding to GRP94” value is on record as “partially reduces”. In addition, the “Effect of N217A mutation on ligand binding” value with GRP94 (N217A mutant of GRP94) is on record as “no effect”. Further, in the data set with GRP94 (PNGase F, ref Yan et al. cell Reports 2020), the “Effect of complete deglycosylation on GRP94 binding to ligand” value is “abolishes”.
